Results as given in patent publication US20130150375A1, “GEPIRONE-ER TREATMENT OF MAJOR DEPRESSION IN PATIENTS TAKING NON-STEROIDAL ANTI-INFLAMMATORY DRUGS (NSAIDs)” (Fabre-Kramer Pharmaceuticals.Inc., priority 2011, published 2013).

How the values were obtained:
depressed subjects = assay: Antidepressant efficacy with and without concomitant NSAIDs in depressed subjects (HAMD-17); type: in vivo, human; conditions: for HAMD-17 CFB (change from baseline) / Remitters (HAMD-17 score of 7 or less after treatment) / Responders (50% improvement in HAMD-17): end of treatment
Text: To control for a placebo effect, 1045 depressed patients taking placebo were studied. Finally, 1041 depressed subjects taking gepirone-ER were studied. In contrast to the STAR-D study, three measures of efficacy were employed: remitters (HAMD-17 score 7 or less at end of treatment), responders (HAMD-17 50% reduction from baseline score at end of treatment) and HAMD-17 total score (change from baseline at end of treatment). Further, to test a possible dose of NSAID effect, two dose levels were tested: subjects taking any NSAID any time and subjects taking daily aspirin and other NSAIDs.

[1] = system: depressed patients taking an NSAID; assay: Individual patient cases from the study (Examples 1 and 2), HAMD-17; type: in vivo, human; conditions: Example 2: person taking ibuprofen
Text: The following Examples represent a sampling of the subjects studied:
A person came to a psychiatric clinic complaining of depression. Their symptoms included: depressed mood, insomnia, lack of energy, low sex drive, and mild suicidal thoughts. They also were being treated for cardiac complains and was taking a daily NSAID (aspirin) to improve blood flow. They refused to discontinue their aspirin because their cardiologist had prohibited them from doing so. Their initial HAMD-17 was 26. After 8 weeks of treatment with Gepirone-ER all of their depressive symptoms had been eliminated.
A person came into the same psychiatric clinic complaining of depression. Their symptoms included depressed mood, lethargy, guilt, and trouble waking up early in the morning. They were also being treated by their neurologist for chronic headaches with ibuprofen. They refused to discontinue the ibuprofen because the headaches interfered with their ability to work. Their initial HAMD-17 was 16. […] A further trial of a second SSRI (citalopram) also failed.

5-HT receptors = conditions: cited from earlier work
[2] = system: post-synaptic receptors in the hippocampus; conditions: cited from earlier work
[3] = system: presynaptic α-2-adrenoceptor; conditions: cited from earlier work
[4] = in vivo; cited from earlier work
[5] = High NSAID (daily aspirin and other NSAIDs)
[6] = High NSAID (daily aspirin and other NSAIDs), listed as fluoxetine
[7] = no NSAID (None), comparison to Any NSAID
[8] = no NSAID (None), comparison to High NSAID
[9] = subjects taking any NSAID any time

CNCCC(Oc1ccc(C(F)(F)F)cc1)c1ccccc1 (stereo not drawn) [Fluoxetine]
HAMD-17 CFB (change from baseline) (depressed subjects; [5]): −9.03
Remitters (HAMD-17 score of 7 or less after treatment) (depressed subjects; [5]): 27%
Responders (50% improvement in HAMD-17) (depressed subjects; [5]): 45%
HAMD-17 CFB (change from baseline) (depressed subjects; [6]): −9.04
Responders (50% improvement in HAMD-17) (depressed subjects; [6]): 45%
Effect of NSAIDs on antidepressant efficacy (depressed subjects; either NSAID dose level, three efficacy measures): NSAIDs interfere with the antidepressant activity
HAMD-17 CFB (change from baseline) (depressed subjects; [7]): −10.5
Remitters (HAMD-17 score of 7 or less after treatment) (depressed subjects; [7]): 28.3%
Responders (50% improvement in HAMD-17) (depressed subjects; [7]): 51%
Remitters (HAMD-17 score of 7 or less after treatment) (depressed subjects; [8]): 32%
Responders (50% improvement in HAMD-17) (depressed subjects; [8]): 55%
Responders (50% improvement in HAMD-17) (depressed subjects; no NSAID (None), comparison to High NSAID, listed as fluoxetine): 55%
HAMD-17 CFB (change from baseline) (depressed subjects; [9]): −9.57
Remitters (HAMD-17 score of 7 or less after treatment) (depressed subjects; [9]): 29%
Responders (50% improvement in HAMD-17) (depressed subjects; [9]): 48%
Clinical outcome [1]: no improvement
HAMD-17 score after treatment ([1]; initial HAMD-17 16, after 8 weeks of treatment): 20

CC1(C)CC(=O)N(CCCCN2CCN(c3ncccn3)CC2)C(=O)C1O (stereo not drawn) [3′-OH gepirone]
Affinity for 5-HT receptors (5-HT receptors): significant affinity
Agonism at post-synaptic receptors in the hippocampus [2]: full agonism

c1cnc(N2CCNCC2)nc1 [1-PP, 1-(2-pyrimidinyl)piperazine]
Action at presynaptic α-2-adrenoceptor [3]: antagonist
Antidepressant-like characteristics in pre-clinical tests [4]: did not exhibit antidepressant-like characteristics
